Our source for the melting point values is a melting point compilation (Tetko et al.; mined from patent text by program, amines drawn as free bases though some values may be those of a salt).

Each structure is given as a SMILES string.

As usually defined, the melting point is the temperature of the solid-liquid transition. For `COc1cc(C(=O)O)ccc1Cc1cn(C)c2ccc(NC(=O)OC3CCCC3)cc12`, the melting point was 157 to 158 °C.

In turn, `O=c1ccn(-c2ccc3[nH]c(=O)c(=O)[nH]c3c2)cc1` yielded a melting point of more than 300 °C.

As for `O=c1c2ccc3cc[nH]c3c2ccn1Cc1ccccc1`, the melting point lay in the range of 211 to 213 °C.

`Nc1ccc2oc(-c3cccc(O)c3)cc(=O)c2c1` came in with a melting point of 157 to 159 °C.

Turning to `CC(=O)Nc1ccc(S(=O)(=O)NCCN2[C@H](C)Cc3ccsc3[C@@H]2C)cc1` (relative stereo), the melting point fell in the range of 142 to 144 °C.

Compound `CC(C)(C)OC(=O)Nc1ccc(Nc2ncnc3[nH]cc(C(=O)c4ccccc4)c23)cc1` yielded a melting point of 274 to 280 °C.

The compound `NC[C@@H]1CN(c2nc3c(cc2F)c(=O)c(C(=O)O)cn3C2CC2)C[C@@H]1Cl` (relative stereo) showed a melting point of 174 to 177 °C.

The compound `CC(C)c1cn(C(C)(C)C(=O)N(C)C)nc1-c1ccccc1` displayed a melting point of 80.5 to 82.5 °C.

Consider `CS(=O)(=O)c1ccc(Oc2cc(OCc3cccc(Cl)n3)c3[nH]c(C4=NCC(CC(=O)O)S4)cc3c2)cc1` (stereo not given), for which the melting point was 175 to 176 °C.

As to `NC(=O)c1sc2nc(N3CCC(NCC(O)c4cc5ccccc5cn4)CC3)cc(C(F)(F)F)c2c1N` (stereo not given), the melting point was in the range of 169 to 172 °C.

Compound `CSc1cc(N)ccc1[N+](=O)[O-]` had a melting point of 178 to 182 °C.

As for `CN(C)NC(=O)N(C)C1c2ccccc2Oc2ccccc21`, the melting point is 120 to 123 °C.

`COc1cc2c(cc1O)/C(=N/OCc1ccc([N+](=O)[O-])cc1)CCC2` had a melting point of 125 to 127 °C.

For `COc1cc(CCc2ccccc2OCc2ccccc2)ncc1C(=O)O`, the melting point amounted to 182 °C.

For `CCCC1=C(C#N)C(c2ccccc2Cl)c2c(n[nH]c2CC(OC)OC)N1` (stereo not given), the melting point came out at 180 °C.

As to `Cc1ccc(Oc2ccc([N+](=O)[O-])cc2-c2ncon2)c(O)c1`, the melting point was in the range of 159 to 160 °C.

`N#Cc1ccccc1C(Cc1ccc(C(F)(F)F)cc1)Cn1cncn1` (stereo not given) displayed a melting point of 123 °C.

As for `CC1OC(n2cc(F)c(NC(=O)c3ccc(Cl)cc3)nc2=O)C(O)C1O` (stereo not given), the melting point was 142 to 146 °C.

`CCCCCCCCCCCC1CC(=O)C(CCCCCC)C(=O)O1` (stereo not given): the melting point lay in the range of 112 to 114 °C.

For `CCn1c2s[nH]c(=O)c2c(=O)c2cc(F)c(F)c(OC(F)F)c21`, the melting point fell in the range of 211 to 213 °C.

Compound `ClC(Cl)(Cl)c1nc(NCc2ccccc2)nc(C(Cl)(Cl)Cl)n1` came in with a melting point of 96.5 to 97 °C.

For the compound `COC(=O)c1ccc2c(nnn2C)c1C(=O)OC`, the melting point lay within 146 to 147 °C.

For `COc1ccc(N(c2ccc(-c3ccc(N(c4ccc(OC)cc4)c4cccc(C(F)(F)F)c4)cc3)cc2)c2cccc(C(F)(F)F)c2)cc1`, the melting point was 134 °C.

As for `CCCc1ccc2nc(Cl)cn2n1`, the melting point lay in the range of 73.9 to 80 °C.

`COc1cc(OC)c2c(=O)cc(-c3ccc(C)cc3)oc2c1C1=CCN(C)CC1` came in with a melting point of 113 to 114 °C.

Regarding `O=C1CCCN1c1cn(-c2cccnc2)nc1Cl`, the melting point lay in the range of 109 to 110 °C.

`O=C(OC(c1ccccc1)c1ccccc1)C1=CSC2C(=Cc3cn4c(n3)SCC4)C(=O)N12` (stereo not given) came in with a melting point of 160 to 161 °C.

`CCc1nc(CC)c(CO)c(-c2ccccc2)c1C=C(C)C`: the melting point was 103 to 104 °C.

For the compound `CS(=O)(=O)Nc1cc(Cl)c(C#N)cc1Sc1ccc(F)cc1F`, the melting point lay in the range of 159 to 162 °C.

For the compound `Nc1ccc2c(c1-c1n[nH]cc1Cl)OC(F)(F)O2`, the melting point stood at 195 °C.

Compound `COc1cc(C)c2c(c1)OC(C)(C)CC2=O` came in with a melting point of 86 to 88 °C.

In the case of `COc1nc(C(F)(F)F)cc(=O)n1-c1cc(OC(C)C)c(Cl)cc1F`, the melting point is 117 to 119 °C.

Regarding `COc1cn(-c2ccccc2F)nc(C(C)=O)c1=O`, the melting point was 154 to 156 °C.

`CCOCc1nc2c(N)nc3ccc(O)cc3c2n1CC(C)(C)NS(C)(=O)=O` yielded a melting point of 252 to 254 °C.

Compound `CCOC(=O)Cc1c(C(=O)OCC)c(C)c(C(=O)OCC)n1CC` yielded a melting point of 142 to 145 °C.

Turning to `CCC(OC(C)=O)c1ccc(Cl)c2nc3n(c12)CCCN3c1ccc(OC)nc1C` (stereo not given), the melting point lay within 157 to 159 °C.

With `COc1ccc2[nH]c(C(=O)c3ccc(Cl)cc3)c(CC(=O)O)c2c1`, the melting point fell in the range of 200 to 204 °C.

As to `CCC(Oc1ccc(C(C)(C)CC)cc1C(C)(C)CC)C(=O)Nc1ccc(Cl)c(NC(=O)CC(=O)C(C)(C)Sc2ccccc2)c1` (stereo not given), the melting point fell in the range of 73 to 75 °C.

Take `Cc1oc(-c2ccccc2)nc1CCc1ccc(/C=C/CO)cc1`: the melting point is 102 to 103 °C.

Take `CSc1nn(-c2c(Cl)cc(C(F)(F)F)cc2Cl)c(N)c1C(=O)c1cc(C)ccc1C`: the melting point was 130 to 132 °C.

Compound `COc1cc(C(CC(=O)O)N2Cc3ccccc3C2=O)cc(OC)c1OC` (stereo not given) yielded a melting point of 162 to 164 °C.

Compound `CC(C)N1C(=O)C(=O)NC1=NC(=NC(=O)OC(C)(C)C)Nc1ccc(Cl)c(Cl)c1` displayed a melting point of 226 °C.

With `CP(=O)(O)CNC(=O)OCc1ccccc1`, the melting point is 118 to 119 °C.

Take `COc1cc2c(Nc3ccc(Oc4ccccc4OC)cc3)c(C#N)cnc2cc1F`: the melting point fell in the range of 146 to 150 °C.

`C=C(F)C(=O)Oc1c(I)cc(C(F)(F)F)cc1I` came in with a melting point of 93 to 95 °C.

For `CSc1ccc(N(C(C)C)S(=O)(=O)c2ccc(C)cc2)c([N+](=O)[O-])c1`, the melting point was in the range of 124 to 126 °C.

For `CCOC(=O)C(C)(C)c1ccc(CCNC(=O)c2ccc(Cl)cc2)cc1`, the melting point is 108 to 109 °C.

As for `C#CCOc1ccccc1-n1cnc2cc(N)ccc21`, the melting point was 40 to 42 °C.

Regarding `CCC(CC)c1nn(-c2ccc(C(F)(F)F)cn2)cc1CCCOc1ccccc1CC(=O)O`, the melting point was 65 to 66 °C.

For the compound `Cc1cc(C(=CC(=O)N2CCOCC2)c2ccccc2)ccc1OS(=O)(=O)N(C)C`, the melting point amounted to 108 °C.

`Nc1ccccc1Nc1ccccn1` returned a melting point of 124 to 125 °C.

`C1=CNC=c2ccccc2=C1` showed a melting point of 128 °C.

`COc1ccc(C2=NN(C3CCN(C(=O)CCCNC(=O)OC(C)(C)C)CC3)C(=O)[C@@H]3CC=CC[C@H]23)cc1OC` registered a melting point of 79 to 83 °C.

With `O=C(O)c1cc(S(=O)(=O)NCCc2ccccc2Cl)ccc1Cl`, the melting point lay within 175 to 177 °C.

On to `CCCCCCCCCCNC(=O)c1ccccc1[N+](=O)[O-]`, for which the melting point is 55 to 57 °C.

`c1cc2c3c(c1)C[C@@H]1CCC[C@@H]1N3CCNC2` (relative stereo): the melting point was in the range of 180 to 190 °C.

Compound `CCN(CC)Cc1cc(C2(c3cccc(-c4cccnc4F)c3)N=C(N)N(C)C2=O)cn1CCF` (stereo not given) registered a melting point of 121 to 140 °C.

On to `CCCCCCCCCCN1CCCN(O)C1=O`, for which the melting point is 45 to 46 °C.

Compound `CC(C)c1nc2ccccc2c(=O)n1NC(=O)C(C)c1ccccc1` (stereo not given) had a melting point of 48 to 55 °C.

Compound `CCn1c(COC(=O)NC(=O)c2cc(Cl)cc(Cl)c2)nc(C(C)C)c1Sc1cc(Cl)cc(Cl)c1` showed a melting point of 124 to 125 °C.

Regarding `COC(=O)c1cc(-c2nnn(Cc3ccc(OC)cc3)n2)ccc1OC`, the melting point lay within 110 to 111 °C.

In turn, `NC(=O)CN1C(=O)C(NC(=O)c2cc3ccccc3[nH]2)C(Cc2ccccc2)Sc2ccccc21` (stereo not given) registered a melting point of 275 °C.

`O=C(Cc1ccc(-c2ccc(F)cc2F)c(F)c1)NO` had a melting point of 149 to 150 °C.

In turn, `Cc1nc(-c2ccccc2)nc(OCC(=O)O)c1C` returned a melting point of 175 to 177 °C.

Turning to `CCNC(=O)c1cc(NC)ccc1[Si](C)(C)C`, the melting point fell in the range of 101 to 102 °C.

Compound `O=C1N(C(c2ccccc2)c2ccccc2)c2ccccc2C1(O)c1cc2c(cc1O)OCCCO2` (stereo not given) came in with a melting point of 115 to 118 °C.

`Cc1nc(N2CCN(CCc3c[nH]c4ccccc34)C2=O)sc1C(=O)NCc1cccnc1`: the melting point lay in the range of 198 to 201 °C.

`N#CCOS(=O)(=O)c1cccc([N+](=O)[O-])c1` registered a melting point of 66 to 69 °C.

For the compound `NC(=O)c1ccc(-c2ccc3nnn(Cc4ccc5ncccc5c4)c3n2)cc1F`, the melting point lay in the range of 198 to 200 °C.

Compound `O=C(Nc1cccc(F)c1)N1CCc2cc(S(=O)(=O)N3CCN(c4cccc(Cl)c4)CC3)ccc21` yielded a melting point of 208 to 210 °C.

Consider `CCn1nc(-c2ccc(OC)cc2)cc(C(=O)OC)c1=O`, for which the melting point was in the range of 76.5 to 77.6 °C.

With `CCC1(CC(O)(CBr)c2ccccc2)C(=O)c2ccccc2C1=O` (stereo not given), the melting point lay within 89 to 92 °C.

Consider `COc1ccc(S(=O)(=O)n2c(N)nc3c2c(=O)n(CC2CC2)c(=O)n3CC2CC2)cc1`, for which the melting point lay within 177 to 178 °C.

The compound `OC1C(COC2CC2)OC(n2cnc3c(NCc4cccc(I)c4)ncnc32)C1O` (stereo not given) displayed a melting point of 110 to 112 °C.

For the compound `C[C@@H](N1CCN(S(=O)(=O)c2ccc([N+](=O)[O-])cc2)CC1)[C@](O)(Cn1cncn1)c1ccc(F)cc1F`, the melting point is 160 to 162 °C.

For `CCOC(=O)C1=C2NCCN2C(C)=C(C(C)=O)C1c1cccc([N+](=O)[O-])c1` (stereo not given), the melting point amounted to 155 °C.

`CN1CCN=C1C(Br)(Br)[N+](=O)[O-]` came in with a melting point of 88 to 90 °C.

In the case of `O=C(Nc1ccc2[nH]c(=O)oc2c1)C(=O)N1CCC(Cc2ccccc2)CC1`, the melting point was 190 to 193 °C.

In turn, `O=C(CCCC(=O)N1CCC(c2ccc(Cl)cc2)CC1)c1ccc2c(c1)CCNCC2` returned a melting point of 112 to 113 °C.

As to `COc1ccc(C(C#N)Nc2ccc(S(C)(=O)=O)cc2)cc1` (stereo not given), the melting point lay in the range of 131 to 132 °C.

With `Nc1nc(NC2CCc3ccccc32)c2ncn(C3OC(CO)C(O)C3O)c2n1` (stereo not given), the melting point fell in the range of 143 to 146 °C.

As for `CC(C)(C)OC(=O)N=C(NC(=O)OC(C)(C)C)N1CCCC1`, the melting point was in the range of 88 to 91 °C.

For the compound `N#Cc1ccc(C(O)C23CCCN2C(=O)N(c2cc(Cl)cc(Cl)c2)C3=O)cc1` (stereo not given), the melting point worked out at 184 °C.

The compound `CNC(=O)On1c(C(F)(F)F)nc2nc(Br)c(Cl)c(Br)c21` yielded a melting point of 216 °C.

`COC(=O)c1cc([N+](=O)[O-])c(-c2ccccc2)c([N+](=O)[O-])c1` yielded a melting point of 148 °C.
